Assay results from PMC9867837 (Cancer letters, 2022).

Experiments:
Plasma stability, human = assay type: in vitro ADME
Protocol: Solubility, human (HLM) and mouse liver microsomal (MLM), and plasma stability studies were performed by Eurofins Cerep Panlabs and Eurofin Discovery Services (www.eurofins.com/PharmaDiscovery), while protein binding studies were performed by Sanford Burnham Prebys Chemical Biology & Drug Discovery Core using standard protocols.

[1] = target: T1, purified recombinant Stat3 (rStat3) (Homo sapiens, UniProt P40763); assay: Isothermal titration calorimetry (ITC); assay type: binding
T1 construct: made in house; host or cells: E. coli BL21(DE3)
T1 sequence (P40763 127-711): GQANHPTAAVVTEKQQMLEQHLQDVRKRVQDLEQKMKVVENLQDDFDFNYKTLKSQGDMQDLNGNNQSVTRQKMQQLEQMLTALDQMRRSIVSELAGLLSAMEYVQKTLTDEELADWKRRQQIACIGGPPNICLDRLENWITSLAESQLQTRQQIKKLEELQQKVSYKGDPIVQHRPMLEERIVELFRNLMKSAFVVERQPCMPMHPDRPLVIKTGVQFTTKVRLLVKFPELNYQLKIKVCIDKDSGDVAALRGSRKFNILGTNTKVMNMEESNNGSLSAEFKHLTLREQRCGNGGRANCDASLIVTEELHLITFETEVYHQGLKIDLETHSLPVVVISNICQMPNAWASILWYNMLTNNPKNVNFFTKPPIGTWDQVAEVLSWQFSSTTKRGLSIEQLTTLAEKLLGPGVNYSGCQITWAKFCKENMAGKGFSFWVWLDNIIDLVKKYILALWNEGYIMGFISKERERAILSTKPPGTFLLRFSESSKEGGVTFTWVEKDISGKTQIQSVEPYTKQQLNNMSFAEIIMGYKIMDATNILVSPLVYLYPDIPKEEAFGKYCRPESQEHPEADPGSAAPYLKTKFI
Protocol: The ITC experiment was carried out as previously described. Details are provided in Supplementary Information, “Methods”. […]
1.2.10. Isothermal titration calorimetry (ITC)
The ITC experiment was carried out as previously described with some modification using Malvern Panalytical MicroCal PEAQ-ITC (United Kingdom). Studies were done at 25 °C. Briefly, H182, previously suspended in 100 % DMSO were diluted in 20 mM HEPES, 150 mM KCl buffer so the final DMSO was 5 %. To avoid buffer mismatch, Stat3 in HEPES buffer was diluted in HEPES buffer with 5% DMSO final concentration. Three hundred microliter (300 μL) aliquots of 3.0 μM Stat3 w ere placed in the cell and titrated with 250 μM H182. Titrations took place by injecting 2 μL H182 in a 2.5 min injection for the titration peak to return to the baseline. The K D was calculated using the MicroCal PEAQ-ITC analysis […]
software and Prism GraphPad software (San Diego, CA), using the one-site model. Control experiments were carried out by titration H182 into buffer, buffer into Stat3, and buffer into buffer. […]
DMSO (control) was added, and then immediately, cells were imaged with a Canon Powershot A640 digital camera under a phase contrast with the Zeiss Axiovert 200 inverted microscope at 10X magnification and noted as the zero time-point. Following culture for 22 h to allow cells to migrate into the denuded area, the culture was then imaged again at the same field that was marked on the plate.
1.2.12. Annexin V binding/apoptosis and flow cytometric analysis
For apoptosis analysis, annexin V/propidium iodide (PI) staining was performed. Briefly, cells in culture and untreated (DMSO, control) or treated with H182 were harvested and stained with FITC -annexin V (Apoptosis Detection Kit), according to manufacturer’s instructions (BD Biosciences, San Jose, CA). […]
1.2.13. Assessment of Physicochemical Properties
Solubility, human (HLM) and mouse liver microsomal (MLM), and plasma stability studies were performed by Eurofins Cerep Panlabs and Eurofin Discovery Services (www.eurofins.com/PharmaDiscovery), while

Stat3 = Stat3 (Homo sapiens, UniProt P40763); assay: Immunofluorescence confocal microscopy of Stat3 localization; assay type: cell-based; set-up: endogenous in cells; settings: MDA-MB-231 and MDA-MB-468, 1 or 2 μM H182, 12 h
Chain of Stat3 (P40763 whole entry): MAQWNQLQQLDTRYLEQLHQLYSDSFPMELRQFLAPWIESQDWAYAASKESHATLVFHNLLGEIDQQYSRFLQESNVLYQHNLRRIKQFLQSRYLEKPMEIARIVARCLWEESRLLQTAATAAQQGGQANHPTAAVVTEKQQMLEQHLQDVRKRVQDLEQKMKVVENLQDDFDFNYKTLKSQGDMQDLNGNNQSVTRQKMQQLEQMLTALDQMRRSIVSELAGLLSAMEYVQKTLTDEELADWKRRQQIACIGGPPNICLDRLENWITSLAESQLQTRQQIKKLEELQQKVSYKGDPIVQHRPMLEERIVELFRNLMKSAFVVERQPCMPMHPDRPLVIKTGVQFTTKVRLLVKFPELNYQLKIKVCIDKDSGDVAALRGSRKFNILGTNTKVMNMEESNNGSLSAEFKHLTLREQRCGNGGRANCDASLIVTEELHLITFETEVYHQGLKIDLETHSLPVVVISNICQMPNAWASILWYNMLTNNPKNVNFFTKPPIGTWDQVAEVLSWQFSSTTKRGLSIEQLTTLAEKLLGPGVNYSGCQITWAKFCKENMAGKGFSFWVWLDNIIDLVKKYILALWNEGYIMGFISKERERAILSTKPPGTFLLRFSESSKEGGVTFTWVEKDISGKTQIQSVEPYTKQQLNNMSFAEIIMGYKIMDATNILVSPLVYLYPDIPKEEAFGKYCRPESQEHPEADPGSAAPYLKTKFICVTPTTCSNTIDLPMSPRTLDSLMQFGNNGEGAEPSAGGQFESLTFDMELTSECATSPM
Protocol: These studies were performed as previously reported. Details are presented in Supplementary Information, “Methods”.
During confluence of cultured cells, the cell-to-cell adhesion and cadherin engagement trigger increased Tyr705Stat3 phosphorylation in a variety of cell lines. To investigate the impact of cell-to-cell adhesion and cadherin engagement, parallel studies were conducted in which cells in culture were untreated or treated with 1 or 2 μM H182 for 0.5–48 h, and whole-cell lysates prepared and immunoprobed for pTyr705Stat3. […] After 48-h incubation, the cell confluency of the DMSO-treated samples reached to around 60% for MDA-MB-468 cells and 80% for MDA-MB-231 cells. […] In the untreated cells, Stat3 (red punctate) staining was predominantly localized in the nucleus of the tumor cells, with weak presence in the cytoplasm (Fig. 4F, 0, Stat3, red merged with blue DAPI nuclear staining). […] Total Stat3 protein levels in all of these studies were unchanged, and GAPDH, tubulin or β-actin levels show equal protein loading. The percent changes induced by H182 treatment on Stat3 DNA-binding activity and phosphorylation in the treated cells are shown.
These studies were performed as previously reported . […]

O=C([C@H]1CCN1S(=O)(=O)c1c(F)c(F)c(F)c(F)c1F)N(Cc1ccc(C2CCCCC2)cn1)c1ccc2c(=O)[nH]ncc2c1 [Compound H182]
remaining at 1 h (Plasma stability, human; 1 h): 53% | remaining at 2 h (Plasma stability, human; 2 h): 10% | ΔG [1]: -7.79 kcal/mol | ΔH [1]: -4.16 kcal/mol | −TΔS [1]: -3.63 kcal/mol | Kd ([1]; one-site model, 25 °C): 1970 nM | Effect on intracellular localization of Stat3 (Stat3): decreased nuclear Stat3 staining and Stat3 aggregation at the perinuclear region
